Experimental findings from patent US7101707B2, “Secondary sprouting for isolation and expansion of endothelial sprout cells and endothelial precursor cells from a mixed population and for screening substances” (Cedars-Sinai Medical Center, priority 2002, dated 2006) are described below.

“Also recorded” adds a separate entry of the source. Numbered stars: 1 amine (or outer) side, 2 acyl side, 3 side chain; on linkers, the order of the positions; unused ones are H or OH. Bridge positions count the residues as written; N and C are the ends. Square brackets hold non-standard residues; d marks the D form. Peptide text beside a SMILES is read from it. I, II: the chains in the order shown. Actinocin(9to1) = Cc1c2oc3c(C)ccc(C(=O)[*:1])c3nc-2c(C(=O)[*:2])c(N)c1=O; NMeV = CN[C@H](C(=O)O)C(C)C; Sar = CNCC(=O)O

The subject of experiment [1] is REC. The experiment is described as follows: Angiogenic assays taken together (proliferation, secondary sprouting, migration, tube formation). The format is cell-based, bovine. The following applies: all assays. As to the method:
Treatment of REC cultures. Duplicate REC cultures on plastic (for migration) or MATRIGEL™ biological cell culture substrate with the same number of cells per dish are treated with previously established working concentrations of signaling inhibitors and/or select growth factor combinations. Treatments begin at the time of seeding the cells and medium is changed every other day. Single growth factors are used as negative controls since their modulation of TN-C effects was minimal. Working growth factor concentrations were as follows: VEGF, 1–50 ng/mL depending on the assay; PlGF, 100 ng/mL; FGF-2, 10–100 ng/mL; IGF-I, 25–100 ng/mL; PDGF-BB, 10–100 ng/mL. When used as combinations, each growth factor was supplied at 10 ng/mL for optimum synergy. The already tested inhibitors of signaling molecules (Sigma, Calbiochem, BIOMOL) were used at the following optimized doses: protein kinase A (inhibitor: H89 [25 μM]), PKC (inhibitor: calphostin C [2.5 μM]), PKC-β (inhibitor: LY379196 [50 nM]), Ca^2+/calmodulin kinase II (inhibitor: KN-93 [0.5 μM]), CK1 (inhibitor: CKI-7 [50 μM]), MEK-ERK (inhibitor: PD98059 [10 μM]), p38 MAP kinase (inhibitor: SB202190 [10 μM]), PI3 kinase (inhibitor: wortmannin [100 nM]), CK2 (inhibitors: emodin [20–25 μM] and DRB [20–25 μM]), CK2 and other kinases (inhibitor: quercetin [50 μM]); and a negative control for kinase inhibition (SB202474 [10 μM]). […]

Experiment [2] deals with bovine REC. Kind of experiment: REC survival assay (MTS, low serum). The format is cell-based. Conditions: for effect of growth factors on REC survival: growth factors 10 ng/mL each. On the procedure:
(§1) REC proliferation and survival assays. 96-well plates were coated with various amounts of TN-C or vehicle. 5×10^3 cells were added to each triplicate well in low-serum REC medium with various amounts of growth factors (0.5% FCS incomplete BREC medium containing 10 ng/ml of human IGF-I, FGF-2, VEGF, PlGF and PDGF-BB [R&D Systems Inc., Minneapolis, Minn.]). Cell numbers were determined on days 4–7 using the MTS cell proliferation assay (Promega Corp.) according to manufacturer's instructions. Survival was measured in the same way using high glucose (30 mM) or chemical hypoxia (2 mM sodium azide) or serum-free medium to induce cell death. Cell numbers were determined on days 4–7 using MTS assay (Promega).

Experiment [3] relates to bovine REC. The experiment is described as follows: REC proliferation assay (MTS). The format is cell-based. The following applies: for effect of kinase inhibitors on proliferation: basal and growth factor-stimulated (CK2 blockers), H-7 preliminary, not shown. As to the method: as §1
For experiment [4], the system named is bovine REC. The experiment is described as follows: Secondary sprouting assay on reconstituted basement membrane matrix (MTS). The format is cell-based. The following applies: for effect of kinase inhibitors on secondary sprouting: basal and growth factor-stimulated (CK2 blockers), H-7 preliminary, not shown. As to the method: (§2) In vitro MATRIGEL™ biological cell culture substrate assay of capillary-like tube formation and secondary sprouting. […] Briefly, 50 μL of reconstituted basement membrane matrix from mouse EHS tumor (BD or GFR MATRIGEL™ biological cell culture substrate; Becton Dickinson Labware, Bedford, Mass.) were dispensed with frozen pipettes into each well of a previously frozen, sterile 96-well plate sitting on wet ice and allowed to solidify for 1 hr at room temperature or 37° C. Approximately 5×10^4 or 7.5×10^4 REC in a 100 μL volume were seeded into each triplicate well. Human recombinant or purified growth factors were added to a final concentration of 10 ng/mL (or as noted) in 0.5% FCS incomplete BREC medium. Capillary-like tube structures formed by REC on reconstituted basement membrane matrix were photographed at various intervals ranging from 12–72 hr; pictures were scanned, digitized and analyzed using image-processing software.
For the secondary sprouting assay, cells on reconstituted basement membrane matrix were seeded as above but incubated in 0.5% FCS incomplete BREC medium without any growth factors for 3 days, allowing for tube formation and collapse. On day 3, human recombinant or purified growth factors were added to a final concentration of 10 ng/mL (or as noted) in low-serum incomplete BREC medium and incubated for another 5–6 days. Digital photographs were obtained with a Kodak MDS 100 camera attached to a Leitz DM IL inverted microscope. Digitized images obtained with a Kodak MDS 100 video camera were stored on compact discs and quantified with NIH Image 1.62 software. The number of living cells in the sprouting colonies were determined using the MTS cell proliferation assay.
A good correlation was observed between the spherical volume and the number of live cells in secondary sprouting colonies (not shown). Since the latter is an easy parameter to test by using the MTS assay, it was adopted as a faster method for studying the effect of various agents on secondary sprouting.

Experiment [5] has as its system retinal neovascularization. Kind of experiment: Oxygen-induced retinopathy in newborn mice. The format is in vivo, mouse.
In experiment [6] the test system is REC. The experiment is described as follows: Capillary-like tube formation on MATRIGEL
It counts as cell-based, bovine. The following applies: for effect of kinase inhibitors on tube formation: basal and growth factor-stimulated (CK2 blockers), H-7 preliminary, not shown. On the procedure: as §2

For experiment [7], the system named is bovine REC. Kind of experiment: Migration (wound healing) assay. It counts as cell-based. The following applies: for effect of kinase inhibitors on migration: basal and growth factor-stimulated (CK2 blockers), H-7 preliminary, not shown; for effect of growth factors on REC migration: growth factors 10 ng/mL each. As to the method:
Migration assay. REC migration rates were examined in a wound healing assay, where cells migrate over time into the scrape wound in a monolayer. Briefly, cells were seeded in 24-well plates and allowed to reach confluence in growth medium. Prior to growth factor treatment, cells were serum-starved overnight in incomplete BREC medium with 0.5% FCS. All monolayers within an experiment were wounded with a single sterile wood stick of constant diameter, to ensure uniformity in the wound areas among different treatments. Wounded monolayers were then rinsed with low-serum medium to remove detached cells and treated with various combinations of human growth factors at 10 ng/mL each. On day 7, cells were rinsed 3× with PBS and fixed with methanol for 15 min, rehydrated with dH2O and stained with Meyer's hematoxylin for 5 min, followed by destaining with dH2O. All wells were photographed with a 4× or 10× objective using a Kodak MDS 100 digital camera attached to a Leitz DM IL inverted microscope. The original wound area was measured at 0 hr and used as a baseline for comparison to the treated wells at the conclusion of the experiment. The number of cells migrated into the wound was determined. Migrating cell counting was automated using the AAB (Advanced American Biotechnology, Fullerton, Calif.) software. Data were calculated and statistically analyzed (Spirin K S et al., Basement membrane and growth factor gene expression in normal and diabetic human retinas, Curr. Eye Res. 18:490–499 [1999]) relative to control cultures that received the same concentrations of bovine serum albumin instead of growth factors and/or inhibitor, compared to vehicle instead of inhibitor after wounding. Inhibitors were added 30 min before growth factors.

Experiment [8] concerns human REC. Kind of experiment: Gene array analysis of growth factor action on normal and DR REC. It counts as cell-based. The following applies: 10 ng/mL, 7 days, 0.5% serum. On the procedure: Normal REC and DR REC gene expression patterns were compared by gene array analysis. Normal, diabetic and DR autopsy human eyes are obtained from National Disease Research Interchange (NDRI), within 24 hours after death. These eyes are used to isolate REC for culture as described hereinabove. Cultures can be used up to the fourth passage, and viable cultures can be cryogenically stored. Cultures of normal, diabetic and DR REC are established from autopsy human eyes and routinely checked for purity using von Willebrand factor immunostaining as described hereinabove. Cells are cultured in 50% F-12, 50% low-glucose DMEM with antibiotics/antimycotics (GIBCO/BRL), insulin-transferrin-selenite, ECGS (Sigma Chemical Co.), and 20% FCS. Statistical analysis of results is done with GraphPad Prism software (GraphPad Software).
In experiments, normal, diabetic, and DR REC were grown for seven days with or without 10 ng/ml VEGF, or 10 ng/mL IGF-I, or 10 ng/mL each VEGF and IGF-I, in medium with 0.5% serum. Long-term rather than short-term treatment was chosen because diabetes develops over a considerable time period. RNA isolated from REC was reverse-transcribed using Smart™ cDNA synthesis method (Clontech), to produce full-length cDNA. Two normal cases or two DR cases were pooled together. This cDNA was PCR-amplified with a short number of cycles and used as a probe for Clontech Atlas Human 1.2 1,200-gene arrays, according to the manufacturer's instructions. This technique had previously been refined and verified by Northern analysis and fully correlated gene array data with protein expression. (Spirin K S et al., Analysis of gene expression in human bullous keratopathy corneas containing limiting amounts of RNA, Invest. Ophthalmol. Vis. Sci. 40:3108–3115 [1999]). Samples were normalized to several housekeeping genes and the analysis was done with available AtlasImage 2.0 software (Clontech). Signal ratio >2 between samples was considered significant as per manufacturer's recommendation.

Regarding `Cc1c2oc3c(C)ccc(C(=O)N[C@@H]4C(=O)N[C@H](C(C)C)C(=O)N5CCC[C@H]5C(=O)N(C)CC(=O)N(C)[C@@H](C(C)C)C(=O)O[C@@H]4C)c3nc-2c(C(=O)N[C@@H]2C(=O)N[C@H](C(C)C)C(=O)N3CCC[C@H]3C(=O)N(C)CC(=O)N(C)[C@@H](C(C)C)C(=O)O[C@@H]2C)c(N)c1=O` [Actinomycin D] (I: T[dV]P[Sar][NMeV] / II: T[dV]P[Sar][NMeV]; ester I:1-I:C, II:1-II:C; linker I:N-II:N via Actinocin(9to1)), the “effect of inhibitors in angiogenic assays” value in experiment [1] is reported as “only minor changes”.

For `OC[C@H]1O[C@@H](n2cnc3cc(Cl)c(Cl)cc32)[C@H](O)[C@@H]1O` [DRB, 5,6-dichloro-1-β-D-ribofuranosylbenzimidazole], the “number of live cells, survival” value in experiment [2] (bovine REC, 0.5% serum, various concentrations, day 6, MTS) is recorded as “significantly lowers cell number”. Moreover, in experiment [3], the “effect of kinase inhibitors on proliferation” value is reported as “potently inhibited”. The “number of live cells, proliferation” value in experiment [3] (bovine REC, 10% serum, various concentrations, day 6, MTS) was “significantly lowers cell number”. The “effect of kinase inhibitors on secondary sprouting” value in experiment [4] is on record as “potently inhibited”. Further, in experiment [4] (bovine REC on MATRIGEL, 0.5% serum, day 9, MTS), the “concentration from which live cell number in secondary sprouting is significantly decreased” value is at least 25 µM. Besides, the “diminution of retinal neovascularization (preretinal nuclei count)” value in experiment [5] (two intraperitoneal injections daily, day 11 to 17 after birth, emodin 20–30 μg/g, vs untreated or vehicle) is reported as “about 60%”. Also, the “effect of kinase inhibitors on tube formation” value in experiment [6] is on record as “potently inhibited”. Besides, the “effect of kinase inhibitors on migration” value in experiment [7] is given as “potently inhibited”. Moreover, the “effect on growth factor-mediated cell migration” value in experiment [7] (four GFs 10 ng/ml each, 7 days, 0.5% serum, emodin 10 μM, DRB 15 μM) was “significant inhibitory effect”.

On to `CC1CNCCN1S(=O)(=O)c1cccc2cnccc12` (centres unmarked) [H-7], for which the “effect of kinase inhibitors on proliferation” value in experiment [3] is “inhibited”. Besides, in experiment [4], the “effect of kinase inhibitors on secondary sprouting” value is “inhibited”. In addition, in experiment [6], the “effect of kinase inhibitors on tube formation” value was “stabilized REC tubes”. In addition, the “effect of kinase inhibitors on migration” value in experiment [7] was “inhibited”.

Take `O=c1c(O)c(-c2ccc(O)c(O)c2)oc2cc(O)cc(O)c12` [quercetin]: the “effect of kinase inhibitors on proliferation” value in experiment [3] was “potently inhibited”. The “effect of kinase inhibitors on secondary sprouting” value in experiment [4] is on record as “potently inhibited”. For the same compound, the “effect on retinal neovascularization” value in experiment [5] (intramuscular injections, data not shown) was “substantial effect”. For the same compound, the “effect of kinase inhibitors on tube formation” value in experiment [6] was “potently inhibited”. For the same compound, the “effect of kinase inhibitors on migration” value in experiment [7] is listed as “potently inhibited”.

As to “FGF-2: fibroblast growth factor (FGF)-2, angiogenic growth factor”, in experiment [4] (10 ng/mL), the “morphology of sprouting colonies after growth factor treatment” value was “longer and sparser sprouts”. For the same compound, the “effect of growth factors on secondary sprouting (live cell number)” value in experiment [4] (10 ng/mL, 0.5% FCS medium) is listed as “potently stimulated; also recorded: pro-angiogenic; also recorded: dramatic increase; also recorded: greatly enhanced”. Further, in experiment [4] (growth factors, live cells by MTS), the “stimulation of secondary sprouting (fold, on average)” value is on record as “four-fold”. In experiment [6] (growth factors 10 ng/mL each), the “effect of growth factors on tube formation” value is “little or no effect”. Moreover, in experiment [7], the “effect of growth factors on REC migration” value (“effect … on REC migration” for short) is recorded as “little or no effect”.

As for “IGF-I: insulin-like growth factor (IGF)-I”, the “effect of growth factors on REC survival” value in experiment [2] is “the opposite”. Also, in experiment [7], the “effect … on REC migration” value is recorded as “the opposite”. Besides, the “expression of pro-apoptotic genes” value in experiment [8] is reported as “decrease”.

For the compound VEGF, the “effect of growth factors on REC survival” value in experiment [2] is given as “little effect”. Moreover, the “effect … on REC migration” value in experiment [7] is reported as “significantly enhanced”. For the same compound, in experiment [8], the “expression of pro-apoptotic genes” value is given as “did not display an increase”, the “expression of proliferation-related genes” value is “upregulated” and the “expression of various phosphatases” value is “downregulated”.
